# According to patent US12297203B2, “Pyrrolopyrimidine ITK inhibitors” (ACLARIS THERAPEUTICS, INC., priority 2018, dated 2025):
# Where two headings read alike, the source gives them in different places.
# How the values were obtained:
# [1] = system: ITK phosphorylation of its substrate, PLCγ1, at Y783; test: ITK target modulation assay (PLCγ1 Y783 phosphorylation, anti-CD3 stimulated Jurkat T cells); type: cell-based; details: anti-CD3 Dynabeads stimulation, read-out: PLC-γ Inh. IC50
# Description: Target modulation was based upon the ability of a compound to inhibit ITK phosphorylation of its substrate, PLCγ1, at Y783. Human Jurkat T cells (ATCC TIB-152) were plated in V-bottom 96 well plates at 400,000 cells/well in 80 μL medium (RPMI1640 with 10% heat inactivated serum and 55 μM 2-mercaptoethanol and supplemented with glutamine/penicillin/streptomycin). Compounds were added as 10 μL of 10× working stock solutions in medium with 1% DMSO (or medium with 1% DMSO for controls) and placed in a 37° C. incubator with gentle shaking for 1 hour. Stimulation was carried out using anti-CD3 Dynabeads (Invitrogen catalog #1151D) to activate the T cell receptor and mimic antigen presenting cells. Beads were washed and resuspended in medium at 1.84×10^8 beads/ml. Beads were added rapidly to all compound containing and stimulation only wells at 10 μL/well (bead:cell=2:1) with gentle mixing of the bead source between each addition. Wells designated ‘unstimulated’ received 10 μL of media only. The plate was immediately sealed with a plate seal and cells pelleted at 400× g for 4 minutes. Media was removed using a multichannel aspirator, 25 μL of cold hypotonic lysis buffer (VWR M334-100 ml) plus 1×HALT Protease Inhibitor Cocktail (ThermoFisher #78437), 1× Phosphatase Inhibitor Cocktail 2 (Sigma Aldrich #P5726), 1× Phosphatase Inhibitor Cocktail 3 (Sigma Aldrich #P0044) and 2 mM PMSF was added per well. Cells were incubated on ice for 30 minutes to swell the cells then lysed by pipetting 20 times using a multichannel pipet. The plates were then resealed and centrifuged for 5 minutes at 400× g to pellet the cellular debris. Two μL of the soluble component of each sample was spotted onto nitrocellulose and allowed to dry for 30 minutes. Nitrocellulose was wet in 1× Tris Buffer Saline (20 mM Tris pH7.5, 150 mM NaCl) then blocked in LiCOR Odyssey Blocking Buffer (TBS) (LiCOR #927-50000) for 1 hour at room temperature with rocking. Following blocking, nitrocellulose was incubated in LiCOR Odyssey Blocking Buffer (TBS) plus 0.2% Tween20 plus anti-phospho-PLCγ1 (Y783) antibody (CST #2821S) at 1:1000 and anti-PLCγ1 (Abcam #41433) at 1:5000 with gentle rocking overnight at 4° C. Nitrocellulose was then washed four times for 5 minutes each with TBS plus 0.1% Tween20 (TBST) then incubated in LiCOR Odyssey Blocking Buffer (TBS) plus 0.2% Tween20 plus secondary antibodies IRDye 800CW (LiCOR 926-32211) and IRDye 680RD (LiCOR 926-68070) both at 1:15,000 with gentle rocking at room temperature in the dark for 1 hour. Nitrocellulose was then washed four times for 5 minutes each with TBST at room temperature in the dark. A final rinse with TBS was done prior to imaging and quantifying using the LiCOR Odyssey Imager and software respectively.
# [2] = system: JAK1/3 phosphorylation of its substrate, STAT5, at Y694; test: JAK1/3 target modulation assay (IL-2 stimulated STAT5 Y694 phosphorylation in PBMC); type: cell-based; details: Primary human peripheral blood mononuclear cells, IL-2 25 ng/mL, read-out: IL2-STAT5 Inh. IC50
# Description: Target modulation was based upon the ability of a compound to inhibit JAK1/3 phosphorylation of its substrate, STAT5, at Y694. Primary human peripheral blood mononuclear cells were plated in V-bottom 96 well plates at 200,000 cells/well in 120 μL medium (RPMI-1640 with 10% fetal bovine serum, 10 mM HEPES buffer, 12.2 mM 2-mercaptoethanol, and supplemented with glutamine/penicillin/streptomycin). Compounds were added as 15 μL of 10× working stock solutions in medium with 1% DMSO (or medium with 1% DMSO for controls) and placed in a 37° C. incubator with gentle shaking for 1 hour. Stimulation was carried out using recombinant human IL-2 (R&D Systems #202-IL-050) to activate JAK1/3. IL-2 stock solution was diluted in media to 250 ng/mL and was added rapidly to all compound containing and stimulation only wells at 15 μL/well (final concentration=25 ng/mL). Wells designated ‘unstimulated’ received 15 μL of media only. The plate was placed back in a 37° C. incubator with gentle shaking for 5 minutes. After stimulation, the plates were immediately sealed with a plate seal, and cells pelleted at 400× g for 5 minutes. Media was removed using a multichannel aspirator, and 75 μL of cold Tris lysis buffer (MSD #R60TX-3) plus 1× Protease Inhibitor Solution (MSD #R70AA-1), 1× Phosphatase Inhibitor I (MSD #R70AA-1), and 1× Phosphatase Inhibitor II (MSD #R70AA-1) was added per well. Cells were incubated at 4° C. with gentle shaking for at least 30 minutes to allow for complete lysis. The plates were removed from 4° C., and 25 μL of lysate from each well was added to the corresponding well on the MSD plate. Samples were analyzed by either an MSD multiplex kit for Phospho-STAT5a,b/Total-STAT5a,b (MSD #K15163D) or an MSD single-plex kit for Phospho-STAT5a,b (MSD #K150IGD). The protocols for the respective kits were followed, and the plates were read on the MSD SECTOR S 600.
# ITK = ITK (Homo sapiens (Human), UniProt Q08881); test: ITK inhibitor binding potency (LanthaScreen competitive binding assay); details: read-out: ITK Inh. IC50
# ITK, sequence (Q08881 whole entry): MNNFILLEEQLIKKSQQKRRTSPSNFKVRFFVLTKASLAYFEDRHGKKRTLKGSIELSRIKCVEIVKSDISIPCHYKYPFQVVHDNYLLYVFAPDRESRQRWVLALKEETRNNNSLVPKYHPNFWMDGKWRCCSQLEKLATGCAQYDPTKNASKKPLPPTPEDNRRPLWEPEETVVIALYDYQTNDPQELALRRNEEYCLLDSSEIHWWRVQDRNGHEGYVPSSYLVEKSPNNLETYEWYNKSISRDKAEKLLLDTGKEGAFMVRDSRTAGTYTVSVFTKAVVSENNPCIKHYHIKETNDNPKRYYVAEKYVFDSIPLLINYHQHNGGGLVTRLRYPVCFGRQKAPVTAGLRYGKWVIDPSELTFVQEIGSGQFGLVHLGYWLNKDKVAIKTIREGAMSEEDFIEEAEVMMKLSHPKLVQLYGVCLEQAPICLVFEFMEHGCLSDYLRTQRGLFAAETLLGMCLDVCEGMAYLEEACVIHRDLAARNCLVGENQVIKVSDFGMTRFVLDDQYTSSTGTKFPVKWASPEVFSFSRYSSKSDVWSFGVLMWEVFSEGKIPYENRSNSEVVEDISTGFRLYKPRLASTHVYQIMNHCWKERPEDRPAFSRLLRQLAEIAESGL
# Source text: The ability of candidate compounds to interact with ITK is quantitated by a competitive binding assay using the LanthaScreen technology developed by Life Technologies. This assay is based on the binding of a proprietary, Alexa Fluor® 647-labeled, ATP-competitive kinase inhibitor (kinase tracer-236) to the ITK expression construct in the presence of a Europium-conjugated antibody, resulting in a FRET (fluorescence resonance energy transfer) signal. Displacement of the kinase tracer by compound results in a lower emission ratio upon excitation of the Europium chelate. Candidate compounds are designed as potential irreversible inhibitors of ITK, capable of ligating to an active site cysteine residue resulting in time dependent covalent binding. The time dependent nature of irreversible inhibition is investigated by performing the binding assay with and without a pre-incubation of compound and ITK. […] The inhibitory potency of candidate compounds is measured in 20 mM HEPES pH 7.5, 10 mM MgCl2, 0.01% BSA, 0.0005% Tween-20, and 2% DMSO in the presence of 10 nM ITK, 2 nM Eu-anti-GST antibody, and 50 nM kinase tracer-236 using a 384-well plate format. Background signal is defined in the absence of ITK and uninhibited signal is defined in the presence of vehicle (2% DMSO) alone. Compounds were evaluated in an 11 point dose-response ranging from 20 uM to 0.34 nM. The binding assays are performed under two preincubation conditions to evaluate time dependence of inhibition. For the pre-incubation assay, ITK and Eu-anti-GST antibody are pre-incubated with compound or vehicle for two hours prior to the addition of kinase tracer. The non-preincubated assay is run under conditions where ITK and Eu-anti-GST antibody are added to a mixture of compound and kinase tracer. IC50 values of compounds are determined using a 4 parameter logistical fit of emission ratio as a function of the concentration of compound.
# JAK3 = JAK3 (Homo sapiens (Human), UniProt P52333); test: JAK3 enzyme activity assay (Caliper mobility shift); type: biochemical; details: ATP at Km level; read-out: JAK3 Inh. IC50
# JAK3, sequence (P52333 781-1124): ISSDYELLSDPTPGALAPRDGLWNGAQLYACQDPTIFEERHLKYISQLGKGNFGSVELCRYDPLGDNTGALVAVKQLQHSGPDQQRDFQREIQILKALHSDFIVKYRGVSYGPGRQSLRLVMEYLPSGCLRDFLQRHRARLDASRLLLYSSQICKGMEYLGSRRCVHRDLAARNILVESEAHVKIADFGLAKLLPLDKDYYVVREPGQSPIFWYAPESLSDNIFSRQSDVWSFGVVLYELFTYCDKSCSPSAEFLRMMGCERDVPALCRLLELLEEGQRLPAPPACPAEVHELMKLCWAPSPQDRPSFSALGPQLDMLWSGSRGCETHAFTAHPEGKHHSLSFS
# Source text: The ability of candidate compounds to interact with JAK3 is quantitated by a mobility shift assay using an LC3000 instrument developed by Caliper Life Sciences. This assay is based on mobility shift electrophoresis, in which fluorescently labelled product and fluorescently labelled substrate peaks are separated and detected independently. JAK3 product/substrate separation is obtained using the following instrument settings: Pressure=−1.4 psi, Downstream voltage=−2550V and Upstream voltage=−800V. The inhibitory potency of candidate compounds of JAK3 is measured in 20 mM HEPES pH 7.5, 10 mM MgCl2, 0.01% BSA, 0.0005% Tween-20, and 2% DMSO in the presence of 2.5 nM JAK3 (Life Technologies Catalog #PV3855), […] (Anaspec Catalog #AS-64106) and […] (Km level) using a 384-well plate format. Background signal is defined in the absence of enzyme and uninhibited signal is defined in the presence of vehicle (2% DMSO) alone. Compounds were evaluated in an 11 point dose-response ranging from […] to 0.34 nM. IC50 values of compounds are determined using a 4 parameter logistical fit of emission ratio as a function of the concentration of compound.
"IC50 ([1]; Homo sapiens, Jurkat) [nM]","IC50 ([2]; Homo sapiens, PBMC) [nM]",IC50 (ITK) [nM],IC50 (JAK3) [nM],IC50 [2] [nM],IC50 ([1]; Human Jurkat T cells) [nM],Compound
> 1000,> 1000,10 to 100,> 100,,,"C=CC(=O)N1CCC[C@@H](Nc2ncnc3[nH]cc(C(=O)[C@H]4CCOC4)c23)C1 (single isomer, unassigned) [Example 11]"
> 1000,> 1000,≤ 10,10 to 100,,,"C=CC(=O)N1CCC[C@@H](Nc2ncnc3[nH]cc(C(=O)[C@@H]4CCOC4)c23)C1 (single isomer, unassigned) [Example 12]"
100 to 1000,,≤ 10,10 to 100,> 1000,,"C=CC(=O)N1CCC[C@@H](Nc2ncnc3[nH]cc([C@H]4C[C@@H]4COC)c23)C1 (single isomer, unassigned) [Example 25]"
,,≤ 10,≤ 10,100 to 1000,≤ 100,"C=CC(=O)N1CCC[C@@H](Nc2ncnc3[nH]cc([C@H]4C[C@@H]4COC)c23)C1 (single isomer, unassigned) [Example 26]"
,,≤ 10,,,,"C=CC(=O)N1CCC[C@@H](Nc2ncnc3[nH]cc([C@@]45CCC[C@@H]4C5(F)F)c23)C1 (single isomer, unassigned) [Example 79, 1-((R)-3-((5-((1R,5S)-6,6-difluorobicyclo[3.1.0]hexan-1-yl)-7H-pyrrolo[2,3-d]pyrimidin-4-yl)amino)piperidin-1-yl)prop-2-en-1-one]"
100 to 1000,100 to 1000,,≤ 10,,,"C=CC(=O)N1CCC[C@@H](Nc2ncnc3[nH]cc([C@@]45CCC[C@@H]4C5(F)F)c23)C1 (single isomer, unassigned) [Example 79]"

# The next lines start with the compound.
Compound,"IC50 ([1]; Homo sapiens, Jurkat) [nM]","IC50 ([2]; Homo sapiens, PBMC) [nM]",IC50 (ITK) [nM],IC50 (JAK3) [nM],IC50 [2] [nM],IC50 ([1]; Human Jurkat T cells) [nM]
"C=CC(=O)N1C[C@H](Nc2ncnc3[nH]cc(CC4CCC(CC)C4)c23)CC[C@@H]1C (mixture of isomers) [Example 36, 1-((2S,5R)-5-((5-((3-ethylcyclopentyl)methyl)-7H-pyrrolo[2,3-d]pyrimidin-4-yl)amino)-2-methylpiperidin-1-yl)prop-2-en-1-one]",100 to 1000,100 to 1000,≤ 10,≤ 10,,
"C=CC(=O)N1C[C@H](Nc2ncnc3[nH]cc(C4CC4COC)c23)CC[C@@H]1C (mixture of isomers) [Example 44, 1-((2S,5R)-5-((5-(2-(methoxymethyl)cyclopropyl)-7H-pyrrolo[2,3-d]pyrimidin-4-yl)amino)-2-methylpiperidin-1-yl)prop-2-en-1-one]",≤ 100,100 to 1000,≤ 10,≤ 10,,
"C=CC(=O)N1C[C@H](Nc2ncnc3[nH]cc(C4CC4(F)F)c23)CC[C@@H]1C (mixture of isomers) [Example 47, 1-((2S,5R)-5-((5-(2,2-difluorocyclopropyl)-7H-pyrrolo[2,3-d]pyrimidin-4-yl)amino)-2-methylpiperidin-1-yl)prop-2-en-1-one]",≤ 100,≤ 100,≤ 10,≤ 10,,
"C[C@H]1CC[C@@H](Nc2ncnc3[nH]cc(C4CC4(F)F)c23)CN1C(=O)/C=C/CN(C)C (mixture of isomers) [Example 59, (E)-1-((2S,5R)-5-((5-(2,2-difluorocyclopropyl)-7H-pyrrolo[2,3-d]pyrimidin-4-yl)amino)-2-methylpiperidin-1-yl)-4-(dimethylamino)but-2-en-1-one]",≤ 100,,≤ 10,10 to 100,,
"C=CC(=O)N1C[C@@H](Nc2ncnc3[nH]cc(CC4CC4)c23)CC[C@H]1CC (single isomer, unassigned) [Example 39]",100 to 1000,100 to 1000,≤ 10,≤ 10,,
"C=CC(=O)N1C[C@H](Nc2ncnc3[nH]cc([C@H]4C(C)(C)C4(F)F)c23)CC[C@@H]1C (single isomer, unassigned) [Example 53]",100 to 1000,≤ 100,≤ 10,,,
"C=CC(=O)N1C[C@H](Nc2ncnc3[nH]cc(C(=O)C(F)(F)F)c23)CC[C@@H]1C [Example 33, 1-((2S,5R)-2-methyl-5-((5-(2,2,2-trifluoroacetyl)-7H-pyrrolo[2,3-d]pyrimidin-4-yl)amino)piperidin-1-yl)prop-2-en-1-one]",100 to 1000,,≤ 10,10 to 100,,
